# Counter-ions that a name gives are not always drawn. Like-named read-outs stand apart in the source and are kept apart here.
# How the values were obtained:
# [1] = Cloud point temperature of a 0.025M aqueous solution of polyoxyethylene(8)nonylphenyl ether with 5% by weight additive; type: physicochemical; conditions: for Effect on the cloud point temperature of nonionic surfactants: screening of non-electrolytes, in words
# Method: An activity enhancer is accordingly defined as a non-electrolyte which is capable, at a concentration of 5% by weight of increasing the cloud point temperature of a 0.025M aqueous solution of polyoxyethylene(8)nonylphenyl ether by at least 10° C. Preferably the activity enhancer is one which is capable of increasing the cloud point temperature by at least 15° C., most preferably by at least 20° C.
# It should be explained that the "cloud point" is a measure of the inverse solubility of a nonionic surfactant with temperature and can be determined by heating a standard clear aqueous solution of the nonionic surfactant until the solution becomes visibly cloudy and then measuring the temperature.
# The cloud point temperature can conveniently be determined automatically using the equipment and method described by Baum et al in Mat. Res. Std. 4 26 (1964).
# Examples of suitable compounds functioning as activity enhancers, together with the respective elevated cloud point temperature obtained in each case when using the standard test defined hereinbefore are listed below in Table 1.
# [2] = system: guinea pig foot pad stratum corneum; assay: Increase in extensibility of guinea pig foot pad stratum corneum; set-up: Increase in stratum corneum extensibility: unit not given here; conditions: 0.2 M 2-hydroxyoctanoic acid + additive at 5% w/w; 3 hours at 20° C.; relative humidity 65%
# Method: The ability of an additive to enhance the delivery to skin of 2-hydroxyoctanoic acid was measured in terms of the increase in extensibility of guinea pig foot pad stratum corneum following contact with each solution.
# In this experiment, pieces of guinea pig foot pad stratum corneum, equilibrated at a relative humidity of 65%, were immersed in each solution for 3 hours at 20° C., and then removed, blotted dry and re-equilibrated at the same relative humidity. The extensibility of each piece of guinea pig foot pad stratum corneum was measured before and after this treatment in an extensiometer according to the method described in European Pat. No. 7785.
# physchem = conditions: octanol/water
# [3] = Table 1, activity enhancer 5% by weight, 0.025 M polyoxyethylene(8)nonylphenyl ether
# [4] = Table 1, activity enhancer 5% by weight, control 33.5 °C., in °C
# [5] = table of extensibility results, additive at 5% w/w, in °C
# [6] = Table 2, compound which is not an activity enhancer, 5% by weight
# [7] = Table 2, compound which is not an activity enhancer, 5% by weight, control 33.5 °C.
compound,measurement,setting,value
"4-methyl-6-(2,4,6-trimethyl-pentyl)-2-(1H)--pyridone",Log partition coefficient,octanol/water,1.28
"C1COCCO1 [1,4 Dioxane]",Cloud point temperature,[1]; [3],44.0 °C
same,Elevation of cloud point temperature,[1]; [4],10.5
CC(O)C(=O)O (stereo not drawn) [2-hydroxypropionic acid],Increase in stratum corneum extensibility,[2],17.1
same,Cloud point temperature,[1]; [3],45.0 °C
same,Elevation of cloud point temperature,[1]; [4],11.5
same,Elevation of cloud point temperature,[1]; [5],11.5
CCCCCCC(=O)C(=O)O [2-ketooctanoic acid],logP,physchem,3.2
CC(C)CO [2-methyl propan-1-ol],Cloud point temperature,[1]; [6],41.0 °C
same,Elevation of cloud point temperature,[1]; [7],7.5 °C
CC(C)(C)O [2-methyl propan-2-ol],Cloud point temperature,[1]; [3],55.0 °C
same,Elevation of cloud point temperature,[1]; [4],21.5
O=C1CCCN1 [2-pyrrolidone],Increase in stratum corneum extensibility,[2],28.0
same,Elevation of cloud point temperature,[1]; [5],15.5
CCC1OC(=O)C(C)C(OC2CC(C)(OC)C(O)C(C)O2)C(C)C(OC2OC(C)C(O)C(N(C)C)C2O)C(C)(O)CC(C)C(=O)C(C)C(O)C1(C)O (stereo not drawn) [4'-hydroxyerythromycin],Log partition coefficient,octanol/water,1.44
"CN1C(=O)NC(=O)C(C)(C)C1=O [5,5-dimethyl, 1-methyl barbituric acid]",logP,physchem,1.09
"CCC1(c2ccccc2)C(=O)NC(=O)NC1=O [5-ethyl-5-phenyl barbituric acid, reference compound]",Log partition coefficient,octanol/water at 20° C.,1.42
CC(C)=O [Acetone],Cloud point temperature,[1]; [3],46.3 °C
same,Elevation of cloud point temperature,[1]; [4],12.8
"CC(O)CCO (stereo not drawn) [Butan-1,3-diol]",Cloud point temperature,[1]; [6],41.5 °C
same,Elevation of cloud point temperature,[1]; [7],8.0 °C
"OCCCCO [Butan-1,4-diol]",Cloud point temperature,[1]; [3],45.0 °C
same,Elevation of cloud point temperature,[1]; [4],11.5
CCCCO [Butan-1-ol],Increase in stratum corneum extensibility,[2],13.2
same,Cloud point temperature,[1]; [6],36.3 °C
same,Elevation of cloud point temperature,[1]; [7],2.8 °C
same,Effect on the cloud point temperature of nonionic surfactants,[1],reduce the cloud point temperature
same,Elevation of cloud point temperature,[1]; [5],2.8
OC1CCCCC1 [Cyclohexanol],Cloud point temperature,[1]; [6],11.0 °C
same,Elevation of cloud point temperature,[1]; [7],-22.5 °C
same,Effect on the cloud point temperature of nonionic surfactants,[1],reduce the cloud point temperature
CC(O)COCC(C)O (stereo not drawn) [Di(2-hydroxypropyl) ether],Increase in stratum corneum extensibility,[2],21.6
same,Cloud point temperature,[1]; [3],44.8 °C
same,Elevation of cloud point temperature,[1]; [4],11.3
same,Elevation of cloud point temperature,[1]; [5],11.3
C[S+](C)[O-] [Dimethyl sulphoxide],Increase in stratum corneum extensibility,[2],5
same,Cloud point temperature,[1]; [6],33.9 °C
same,Elevation of cloud point temperature,[1]; [7],0.4 °C
same,Elevation of cloud point temperature,[1]; [5],-0.5
"OCCO [Ethan-1,2-diol]",Increase in stratum corneum extensibility,[2],5
same,Cloud point temperature,[1]; [6],33.0 °C
same,Elevation of cloud point temperature,[1]; [7],-0.5 °C
same,Elevation of cloud point temperature,[1]; [5],-0.5
CCOC(=O)C(C)O (stereo not drawn) [Ethyl-2hydroxypropanoate],Cloud point temperature,[1]; [3],52.1 °C
same,Elevation of cloud point temperature,[1]; [4],18.6
"CC(O)CCC(C)O (stereo not drawn) [Hexan-2,5-diol]",Increase in stratum corneum extensibility,[2],37.0
same,Cloud point temperature,[1]; [3],52.0 °C
same,Elevation of cloud point temperature,[1]; [4],18.5
same,Elevation of cloud point temperature,[1]; [5],18.5
C1COCCN1 [Morpholine],Cloud point temperature,[1]; [6],40.0 °C
same,Elevation of cloud point temperature,[1]; [7],6.5 °C
CC(=O)Nc1ccccc1C(=O)O [N--acetyl O--aminobenzoic acid],Log partition coefficient,octanol/water at 20° C.,1.88
O=Cc1ccccc1O [O--hydroxybenzaldehyde],logP,physchem,1.7
"CCOCCOCCO [POE(2) ethyl ether, polyoxyethylene(2) ethyl ether]",Cloud point temperature,[1]; [3],46.0 °C
same,Elevation of cloud point temperature,[1]; [4],12.5
COCCOCCO [POE(2) methyl ether],Cloud point temperature,[1]; [3],43.5 °C
same,Elevation of cloud point temperature,[1]; [4],10.0
"CC(O)CC(C)O (stereo not drawn) [Pentan-2,4-diol]",Increase in stratum corneum extensibility,[2],17.0
same,Cloud point temperature,[1]; [3],48.0 °C
same,Elevation of cloud point temperature,[1]; [4],14.5
same,Elevation of cloud point temperature,[1]; [5],14.5
"OCC(O)CO [Propan-1,2,3-triol]",Increase in stratum corneum extensibility,[2],5
same,Cloud point temperature,[1]; [6],32.2 °C
same,Elevation of cloud point temperature,[1]; [7],-1.3 °C
same,Effect on the cloud point temperature of nonionic surfactants,[1],reduce the cloud point temperature
same,Elevation of cloud point temperature,[1]; [5],-1.3
"CC(O)CO (stereo not drawn) [Propan-1,2-diol]",Increase in stratum corneum extensibility,[2],12.6
same,Cloud point temperature,[1]; [6],39.0 °C
same,Elevation of cloud point temperature,[1]; [7],5.5 °C
same,Elevation of cloud point temperature,[1]; [5],5.5
CCCO [Propan-1-ol],Cloud point temperature,[1]; [3],53.0 °C
same,Elevation of cloud point temperature,[1]; [4],19.5
CC(C)O [Propan-2-ol],Cloud point temperature,[1]; [3],56.0 °C
same,Elevation of cloud point temperature,[1]; [4],22.5
C1CCOC1 [Tetrahydrofuran],Cloud point temperature,[1]; [3],45.0 °C
same,Elevation of cloud point temperature,[1]; [4],11.5
Nc1ncnc2c1ncn2[C@@H]1O[C@H](COP(=O)(O)OP(=O)(O)O)[C@@H](O)[C@H]1O [adenosine diphosphate],logP,physchem,0.89
Nc1ncnc2c1ncn2[C@@H]1O[C@H](COP(=O)(O)OP(=O)(O)OP(=O)(O)O)[C@@H](O)[C@H]1O [adenosine triphosphate],logP,physchem,1.64
"CC(N)Cc1ccccc1 (stereo not drawn) [amphetamine, reference compound]",Log partition coefficient,octanol/water at 20° C.,1.63
"O=C(O)CCCCCCCC(=O)O [azelaic acid, reference compound]",Log partition coefficient,octanol/water,1.57
c1ccc2[nH]cnc2c1 [benzimidazole],Log partition coefficient,octanol/water at 20° C.,1.34
"CC1(C)S[C@@H]2[C@H](NC(=O)Cc3ccccc3)C(=O)N2[C@H]1C(=O)O [benzyl pencillin, reference compound]",Log partition coefficient,octanol/water,1.83
"COc1ccc2c3c1O[C@H]1[C@@H](O)C=C[C@H]4[C@@H](C2)N(C)CC[C@@]341 [codeine, reference compound]",logP,physchem,1.01
"CC[C@H]1OC(=O)[C@H](C)[C@@H](O[C@H]2C[C@@](C)(OC)[C@@H](O)[C@H](C)O2)[C@H](C)[C@@H](O[C@@H]2O[C@H](C)C[C@H](N(C)C)[C@H]2O)[C@](C)(O)C[C@@H](C)C(=O)[C@H](C)[C@@H](O)[C@]1(C)O [erythromycin, reference compound]",Log partition coefficient,octanol/water,1.26
CCOC(=O)c1cccnc1 [ethyl nicotinate],Log partition coefficient,octanol/water at 20° C.,1.32
O=C(O)c1cccc(O)c1 [m-hydroxybenzoic],Log partition coefficient,octanol/water,1.50
Cc1cccc(S(N)(=O)=O)c1 [m-methylbenzene sulphonamide],Log partition coefficient,octanol/water at 20° C.,0.85
NS(=O)(=O)c1cccc([N+](=O)[O-])c1 [m-nitrobezene sulphonamide],Log partition coefficient,octanol/water at 20° C.,0.55
"NC(=O)c1cccnc1 [niacinamide, reference compound]",Log partition coefficient,octanol/water at 20° C.,1.37
Oc1ccccc1O [o-dihydroxybenzene],Log partition coefficient,octanol/water at 20° C.,0.80
Cc1ccccc1S(N)(=O)=O [o-methylbenzene sulphonamide],Log partition coefficient,octanol/water,0.84
"Nc1ccc(C(=O)O)cc1 [p-aminobenzoic acid, reference compound]",Log partition coefficient,octanol/water,0.68
Oc1ccc(O)cc1 [p-dihyroxybenzene],Log partition coefficient,octanol/water,0.59
Cc1ccc(S(N)(=O)=O)cc1 [p-methylbenzene sulphonamide],Log partition coefficient,octanol/water at 20° C.,0.82
NS(=O)(=O)c1ccc([N+](=O)[O-])cc1 [p-nitrobenzene sulphonamide],Log partition coefficient,octanol/water at 20° C.,0.64
"CCN(CC)CCOC(=O)c1ccc(N)cc1 [procaine, reference compound]",Log partition coefficient,octanol/water,1.87
O=C1NS(=O)(=O)c2ccccc21 [saccharin],Log partition coefficient,octanol/water,0.91
"O=C(O)c1ccccc1O [salicylic acid, reference compound]",Log partition coefficient,octanol/water at 20° C.,2.26
OC[C@@H](O)[C@@H](O)[C@H](O)[C@@H](O)CO [sorbitol],Effect on the cloud point temperature of nonionic surfactants,[1],reduce the cloud point temperature
O=C1C[C@@H]2OCC=C3CN4CC[C@]56c7ccccc7N1[C@H]5[C@H]2[C@H]3C[C@H]46 [strychnine],Log partition coefficient,octanol/water,1.93
"COc1cc(NS(=O)(=O)c2ccc(N)cc2)ncn1 [sulphamonomethoxine, reference compound]",logP,physchem,0.85
"Nc1ccc(S(=O)(=O)Nc2ccnn2-c2ccccc2)cc1 [sulphaphenzole, reference compound]",logP,physchem,1.57
COC1=CC=C2[C@H]3Cc4ccc(OC)c5c4[C@@]2(CCN3C)[C@H]1O5 [thebaine],logP,physchem,1.91
CCOC(=O)CC(O)(CC(=O)OCC)C(=O)OCC [triethyl citrate],Log partition coefficient,octanol/water at 20° C.,0.67
CC1(C)SC2C(NC(=O)C(O)c3ccccc3)C(=O)N2C1C(=O)O (stereo not drawn) [α-hydroxy benzyl penicillin],Log partition coefficient,octanol/water at 20° C.,1.40

# Source: patent US4699924A, “Skin treatment composition” (priority 1983, dated 1987)
